Measured values taken from patent US11541107B2, “Peptides and T cells for use in immunotherapeutic treatment of various cancers” (Immatics Biotechnologies GmbH, priority 2015, dated 2023).

Columns and labels:
[1] = tested on: CD8+ T cells; experiment: In vitro T-cell priming assay (aAPCs loaded with peptide/MHC and anti-CD28, pMHC multimer readout; HLA-A*02 and HLA-A*24); format: cell-based, human; conditions: in vitro immunogenicity of HLA class I peptides; peptide-specific T cells by pMHC multimer staining
Excerpt: In order to obtain information regarding the immunogenicity of the TUMAPs of the present invention, the inventors performed investigations using an in vitro T-cell priming assay based on repeated stimulations of CD8+ T cells with artificial antigen presenting cells (aAPCs) loaded with peptide/MHC complexes and anti-CD28 antibody.
In order to perform in vitro stimulations by artificial antigen presenting cells loaded with peptide-MHC complex (pMHC) and anti-CD28 antibody, the inventors first isolated CD8+ T cells from fresh HLA-A*02 leukapheresis products via positive selection using CD8 microbeads (Miltenyi Biotec, Bergisch-Gladbach, Germany) of healthy donors obtained from the University clinics Mannheim, Germany, after informed consent.
PBMCs and isolated CD8+ lymphocytes were incubated in T-cell medium (TCM) until use consisting of RPMI-Glutamax (Invitrogen, Karlsruhe, Germany) supplemented with 10% heat inactivated human AB serum (PAN-Biotech, Aidenbach, Germany), 100 U/ml Penicillin/100 μg/ml Streptomycin (Cambrex, Cologne, Germany), 1 mM sodium pyruvate (CC Pro, Oberdorla, Germany), 20 μg/ml Gentamycin (Cambrex). 2.5 ng/ml IL-7 (PromoCell, Heidelberg, Germany) and 10 U/ml IL-2 (Novartis Pharma, Nürnberg, Germany) were also added to the TCM at this step.
Generation of pMHC/anti-CD28 coated beads, T-cell stimulations and readout was performed in a highly defined in vitro system using four different pMHC molecules per stimulation condition and 8 different pMHC molecules per readout condition.
The purified co-stimulatory mouse IgG2a anti human CD28 Ab 9.3 (Jung et al., 1987) was chemically biotinylated using Sulfo-N-hydroxysuccinimidobiotin as recommended by the manufacturer (Perbio, Bonn, Germany). Beads used were 5.6 μm diameter streptavidin coated polystyrene particles (Bangs Laboratories, Illinois, USA).
pMHC used for positive and negative control stimulations were A*0201/MLA-001 (peptide […] (SEQ ID NO. 418) from modified Melan-A/MART-1) and A*0201/DDX5-001 ([…] from DDX5, SEQ ID NO. 419), respectively.
800.000 beads/200 μl were coated in 96-well plates in the presence of 4×12.5 ng different biotin-pMHC, washed and 600 ng biotin anti-CD28 were added subsequently in a volume of 200 μl. Stimulations were initiated in 96-well plates by co-incubating 1×10^6 CD8+ T cells with 2×10^5 washed coated beads in 200 μl TCM supplemented with 5 ng/ml IL-12 (PromoCell) for 3 days at 37° C. Half of the medium was then exchanged by fresh TCM supplemented with 80 U/ml IL-2 and incubating was continued for 4 days at 37° C. This stimulation cycle was performed for a total of three times. For the pMHC multimer readout using 8 different pMHC molecules per condition, a two-dimensional combinatorial coding approach was used as previously described (Andersen et al., 2012) with minor modifications encompassing coupling to 5 different fluorochromes. Finally, multimeric analyses were performed by staining the cells with Live/dead near IR dye (Invitrogen, Karlsruhe, Germany), CD8-FITC antibody clone SK1 (BD, Heidelberg, Germany) and fluorescent pMHC multimers. For analysis, a BD LSRII SORP cytometer equipped with appropriate lasers and filters was used. Peptide specific cells were calculated as percentage of total CD8+ cells. Evaluation of multimeric analysis was done using the FlowJo software (Tree Star, Oregon, USA). In vitro priming of specific multimer+CD8+ lymphocytes was detected by comparing to negative control stimulations.
Exemplary flow cytometry results after TUMAP-specific multimer staining for 2 peptides of the invention are shown in FIGS. 3A-3B together with corresponding negative controls. Results for 5 peptides from the invention are summarized in Table12A. Exemplary flow cytometry results after TUMAP-specific multimer staining for 7 peptides of the invention are shown in FIGS. 4A-4C and FIGS. 5A-5D together with corresponding negative controls.

[2] = molecular target: HLA-A*02 (Homo sapiens, UniProt P04439, D140Y/D185E/D98H/E176V/E277Q/G131W/G231S/I119V/I121R/I166T/I218V/L300P/N151K/N90K/P208A/P217A/Q86G/Q94H/R138H/R169H); experiment: MHC binding assay, UV-ligand exchange with beta2m ELISA, HLA-A*02; conditions: binding to HLA-A*02 ranged by peptide exchange yield (UV-ligand exchange, beta2m ELISA)
Outline: (§1)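 Peptide–MHC complexes made by UV-ligand exchange of a UV-cleavable peptide. Exchange yield measured by ELISA: monomers diluted 100-fold on streptavidin-coated plates, 1 h at 37°C, detected with HRP anti-β2m (2 ug/ml) and TMB, absorbance at 450 nm.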

[3] = tested on: HLA-A*24; experiment: MHC binding assay, UV-ligand exchange with beta2m ELISA, HLA-A*24; design: species or system human; conditions: binding to HLA-A*24 ranged by peptide exchange yield (UV-ligand exchange, beta2m ELISA)
Outline: as §1

Row | Substance | Wells positive [%] [1] | Peptide exchange [2] | Peptide exchange [3]
1 | 2 (ALYGKLLKL; listed as Homo sapiens) [compound 2] | ++++ (>=70% = ++++) | +++ (50%-75% = +++) | 
2 | 7 (AAAAKVPEV; listed as Homo sapiens) [compound 7] | + (<20% = +) | +++ (50%-75% = +++) | 
3 | 9 (FLGDYVENL; listed as Homo sapiens) [compound 9] | + (<20% = +) | ++ (20%-49% = ++) | 
4 | 17 (ILHEHHIFL; listed as Homo sapiens) [compound 17] | + (<20% = +) | +++ (50%-75% = +++) | 
5 | 43 (LLWAGPVTA; listed as Homo sapiens) [compound 43] | ++++ (>=70% = ++++) | +++ (50%-75% = +++) | 
6 | 322 (ALVSGGVAQA; listed as Homo sapiens) [compound 322] | + (<20% = +) | +++ (50%-75% = +++) | 
7 | 356 (NYMPGQLTI; listed as Homo sapiens) [compound 356] | + (<20% = +) |  | ++++ (>=75% = ++++)
8 | 358 (YYSEVPVKL; listed as Homo sapiens) [compound 358] | ++++ (>=70% = ++++) |  | +++ (50%-75% = +++)
9 | 359 (NYGVLHVTF; listed as Homo sapiens) [compound 359] | + (<20% = +) |  | ++++ (>=75% = ++++)
10 | 363 (SYAELGTTI; listed as Homo sapiens) [compound 363] | + (<20% = +) |  | ++ (20%-49% = ++)
11 | 365 (VFIDHPVHL; listed as Homo sapiens) [compound 365] | + (<20% = +) |  | ++++ (>=75% = ++++)
12 | 380 (VYTGIDHHW; listed as Homo sapiens) [compound 380] | + (<20% = +) |  | ++++ (>=75% = ++++)
